Calls of active or inactive are those of the source. No cut-off for these calls is given here.
Experiments:
[1] = molecular target: Protein arginine N-methyltransferase 1 (Homo sapiens, UniProt Q99873); experiment: Inhibition of human PRMT1 using H4-21peptide as substrate at 10 uM incubated for 10 mins by fluorescence based analysis relative to control
[2] = molecular target: Protein arginine N-methyltransferase 8 (Homo sapiens, UniProt Q9NR22); experiment: Inhibition of human PRMT8 using Histone H4 as substrate and SAM as cofactor at 10 uM by radiometric HotSpot assay relative to control
[3] = molecular target: Protein arginine N-methyltransferase 3 (Homo sapiens, UniProt O60678); experiment: Inhibition of human PRMT3 using H4-21peptide as substrate at 10 uM incubated for 10 mins by fluorescence based analysis relative to control
[4] = molecular target: T1, Histone-arginine methyltransferase CARM1 (Homo sapiens) (UniProt Q86X55); experiment: Inhibition of human PRMT4 using histone H3 as substrate and SAM as cofactor at 10 uM by radiometric HotSpot assay relative to control
T1 sequence (whole entry): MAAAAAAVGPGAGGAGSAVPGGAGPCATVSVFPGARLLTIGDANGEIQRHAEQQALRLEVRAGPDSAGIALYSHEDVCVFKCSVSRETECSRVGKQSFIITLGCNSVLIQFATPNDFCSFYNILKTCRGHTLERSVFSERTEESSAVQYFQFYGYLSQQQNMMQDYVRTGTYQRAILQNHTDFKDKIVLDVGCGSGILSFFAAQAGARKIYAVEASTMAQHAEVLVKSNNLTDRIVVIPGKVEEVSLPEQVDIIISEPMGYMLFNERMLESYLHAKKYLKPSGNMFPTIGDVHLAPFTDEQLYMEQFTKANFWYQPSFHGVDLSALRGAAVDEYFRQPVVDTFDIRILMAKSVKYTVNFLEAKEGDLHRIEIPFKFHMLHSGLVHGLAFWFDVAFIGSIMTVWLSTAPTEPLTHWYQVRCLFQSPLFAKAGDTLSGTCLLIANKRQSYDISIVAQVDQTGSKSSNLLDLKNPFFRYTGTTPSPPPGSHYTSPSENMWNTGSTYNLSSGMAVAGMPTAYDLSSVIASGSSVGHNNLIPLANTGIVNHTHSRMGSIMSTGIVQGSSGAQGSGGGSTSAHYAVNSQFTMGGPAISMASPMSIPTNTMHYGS

[5] = molecular target: Protein arginine N-methyltransferase 6 (Homo sapiens, UniProt Q96LA8); experiment: Inhibition of human PRMT6 using GST-GAR as substrate and SAM as cofactor at 10 uM by radiometric HotSpot assay relative to control
Chain of Protein arginine N-methyltransferase 6 (Q96LA8 whole entry, looked up): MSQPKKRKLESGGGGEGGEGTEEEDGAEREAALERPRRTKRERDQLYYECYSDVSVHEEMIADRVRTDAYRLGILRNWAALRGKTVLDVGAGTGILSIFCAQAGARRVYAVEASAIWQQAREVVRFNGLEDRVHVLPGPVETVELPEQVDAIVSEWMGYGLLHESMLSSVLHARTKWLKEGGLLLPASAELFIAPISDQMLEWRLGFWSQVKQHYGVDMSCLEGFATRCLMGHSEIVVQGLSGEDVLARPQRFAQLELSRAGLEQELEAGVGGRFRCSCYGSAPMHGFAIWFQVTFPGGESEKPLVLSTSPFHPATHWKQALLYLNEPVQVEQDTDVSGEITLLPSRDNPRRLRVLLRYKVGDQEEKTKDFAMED

Chain of Protein arginine N-methyltransferase 3 (O60678 2-531 limits assumed): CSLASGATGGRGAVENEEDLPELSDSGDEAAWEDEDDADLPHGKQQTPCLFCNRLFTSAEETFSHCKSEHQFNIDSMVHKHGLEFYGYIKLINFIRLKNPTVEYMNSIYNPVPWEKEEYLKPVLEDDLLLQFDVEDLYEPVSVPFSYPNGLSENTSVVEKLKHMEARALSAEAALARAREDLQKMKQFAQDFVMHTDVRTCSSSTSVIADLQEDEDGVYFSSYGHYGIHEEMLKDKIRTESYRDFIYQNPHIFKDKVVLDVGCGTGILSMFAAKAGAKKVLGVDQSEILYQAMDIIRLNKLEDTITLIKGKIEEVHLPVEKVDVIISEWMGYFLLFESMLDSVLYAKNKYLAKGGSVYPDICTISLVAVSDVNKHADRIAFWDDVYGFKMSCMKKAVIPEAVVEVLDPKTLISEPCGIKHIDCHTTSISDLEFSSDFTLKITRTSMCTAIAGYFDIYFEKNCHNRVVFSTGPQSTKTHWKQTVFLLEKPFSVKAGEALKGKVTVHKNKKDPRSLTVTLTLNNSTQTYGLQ
Chain of Protein arginine N-methyltransferase 8 (Q9NR22 2-394 limits assumed): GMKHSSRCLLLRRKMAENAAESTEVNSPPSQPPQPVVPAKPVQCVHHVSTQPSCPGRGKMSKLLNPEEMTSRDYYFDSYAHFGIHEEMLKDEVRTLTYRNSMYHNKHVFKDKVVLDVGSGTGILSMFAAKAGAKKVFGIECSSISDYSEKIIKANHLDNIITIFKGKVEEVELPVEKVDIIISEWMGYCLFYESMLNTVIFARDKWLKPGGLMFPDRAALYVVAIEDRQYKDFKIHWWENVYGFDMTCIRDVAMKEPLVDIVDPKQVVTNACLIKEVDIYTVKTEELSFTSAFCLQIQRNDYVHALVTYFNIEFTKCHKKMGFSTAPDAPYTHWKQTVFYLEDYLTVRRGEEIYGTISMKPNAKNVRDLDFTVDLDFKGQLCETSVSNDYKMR
Chain of Protein arginine N-methyltransferase 1 (Q99873 whole entry, looked up): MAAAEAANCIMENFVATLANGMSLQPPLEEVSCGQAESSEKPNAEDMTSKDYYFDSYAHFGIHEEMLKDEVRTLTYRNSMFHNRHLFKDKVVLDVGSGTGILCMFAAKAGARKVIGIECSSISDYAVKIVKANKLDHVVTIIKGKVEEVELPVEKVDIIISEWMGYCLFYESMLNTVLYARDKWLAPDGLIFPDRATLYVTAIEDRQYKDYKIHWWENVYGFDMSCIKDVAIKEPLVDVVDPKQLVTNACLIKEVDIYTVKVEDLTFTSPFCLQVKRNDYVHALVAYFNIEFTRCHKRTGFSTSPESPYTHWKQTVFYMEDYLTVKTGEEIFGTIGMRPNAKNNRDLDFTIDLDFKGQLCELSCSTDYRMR

SMILES | inhibition [1] | inhibition [2] | inhibition [3] | inhibition [4] | inhibition [5]
Nc1ncnc2c1ncn2[C@@H]1O[C@H](CSCCNC(=O)NCc2ccc3cnccc3c2)[C@@H](O)[C@H]1O | < 50% | < 30% | 3% | 27% | 
COc1cc2nc(-c3cccc([N+](=O)[O-])c3)nc(NCCSC[C@H]3O[C@@H](n4cnc5c(N)ncnc54)[C@H](O)[C@@H]3O)c2cc1OC | inactive | < 50% | < 30% |  | 
N=C(NCCCSC[C@H]1O[C@@H](n2cnc3c(N)ncnc32)[C@H](O)[C@@H]1O)Nc1cccc(-c2ccc3c(c2)OCCO3)c1 | > 50% | > 95% |  | > 90% | > 90%
Nc1ncnc2c1ncn2[C@@H]1O[C@H](CSCCNC(=O)Nc2ccccc2)[C@@H](O)[C@H]1O | < 50% | < 30% | > 50% | 27% | 
Nc1ncnc2c1ncn2[C@@H]1O[C@H](CSCCNC(=O)NCCc2ccccc2)[C@@H](O)[C@H]1O | < 50% | < 30% | 3% | 27% | 
N=C(NCCCSC[C@H]1O[C@@H](n2cnc3c(N)ncnc32)[C@H](O)[C@@H]1O)Nc1cccc(-c2cccc(F)c2)c1 | > 50% | > 95% |  | > 90% | > 90%
N=C(NCCCSC[C@H]1O[C@@H](n2cnc3c(N)ncnc32)[C@H](O)[C@@H]1O)Nc1cccc(Br)c1 | > 50% | > 95% |  | > 90% | > 90%
Nc1ncnc2c1ncn2[C@@H]1O[C@H](CSCCNC(=O)NCc2ccc(-c3ccccc3O)cc2)[C@@H](O)[C@H]1O | < 50% | < 30% | 3% | 27% | 
Nc1ncnc2c1ncn2[C@@H]1O[C@H](CSCCNC(=O)NCc2ccc(-c3cn[nH]c3)cc2)[C@@H](O)[C@H]1O | < 50% | < 30% | 3% | 27% | 
N=C(NCCSC[C@H]1O[C@@H](n2cnc3c(N)ncnc32)[C@H](O)[C@@H]1O)Nc1cccc(-c2ccc(C(F)(F)F)cc2)c1 | > 50% | > 95% |  | > 90% | > 90%
N=C(NCCCSC[C@H]1O[C@@H](n2cnc3c(N)ncnc32)[C@H](O)[C@@H]1O)Nc1cccc(-c2cncnc2)c1 | > 50% | > 95% |  | > 90% | > 90%
COc1cc2nc(-c3ccccc3O)nc(NCCSC[C@H]3O[C@@H](n4cnc5c(N)ncnc54)[C@H](O)[C@@H]3O)c2cc1OC | inactive | < 50% | < 30% |  | 
N=C(NCCCSC[C@H]1O[C@@H](n2cnc3c(N)ncnc32)[C@H](O)[C@@H]1O)NCc1ccccc1 | > 50% | > 95% |  | > 90% | > 90%
N=C(NCCCSC[C@H]1O[C@@H](n2cnc3c(N)ncnc32)[C@H](O)[C@@H]1O)Nc1cccc(-c2ccc(Cl)cc2)c1 | > 50% | > 95% |  | > 90% | > 90%
Nc1ncnc2c1ncn2[C@@H]1O[C@H](CSCCCNC(=O)NCc2ccc(F)cc2)[C@@H](O)[C@H]1O | < 50% | < 30% | 3% | 27% | 
COc1cc2nc(-c3ccc(N)cc3)nc(NCCSC[C@H]3O[C@@H](n4cnc5c(N)ncnc54)[C@H](O)[C@@H]3O)c2cc1OC | inactive | < 50% | < 30% |  | 
Nc1ncnc2c1ncn2[C@@H]1O[C@H](CSCCNC(=O)Nc2ccc(F)cc2)[C@@H](O)[C@H]1O | < 50% | < 30% | > 50% | 27% | 

SMILES | inhibition [1] | inhibition [2] | inhibition [3] | inhibition [4] | inhibition [5]
COc1cc2nc(-c3ccoc3)nc(NCCSC[C@H]3O[C@@H](n4cnc5c(N)ncnc54)[C@H](O)[C@@H]3O)c2cc1OC | inactive | < 50% | < 30% |  | 
Nc1ncnc2c1ncn2[C@@H]1O[C@H](CSCCCNC(=O)NCCCc2ccccc2)[C@@H](O)[C@H]1O | < 50% | < 30% | 3% | 27% | 
Nc1ncnc2c1ncn2[C@@H]1O[C@H](CSCCCNC(=O)NCc2ccccc2)[C@@H](O)[C@H]1O | < 50% | < 30% | 3% | 27% | 
Nc1ncnc2c1ncn2[C@@H]1O[C@H](CSCCNC(=O)Nc2ccccc2Br)[C@@H](O)[C@H]1O | < 50% | < 30% | > 50% | 27% | 
Nc1ncnc2c1ncn2[C@@H]1O[C@H](CSCCNC(=O)NCc2ccccc2Br)[C@@H](O)[C@H]1O | < 50% | < 30% | 3% | > 90% | 
COc1cc2nc(-c3cccc(F)c3)nc(NCCSC[C@H]3O[C@@H](n4cnc5c(N)ncnc54)[C@H](O)[C@@H]3O)c2cc1OC | inactive | < 50% | < 30% |  | 
COc1cc2nc(-c3cccc(O)c3)nc(NCCSC[C@H]3O[C@@H](n4cnc5c(N)ncnc54)[C@H](O)[C@@H]3O)c2cc1OC | inactive | < 50% | < 30% |  | 
Nc1ncnc2c1ncn2[C@@H]1O[C@H](CSCCNC(=O)Nc2ccc(Cl)cc2)[C@@H](O)[C@H]1O | < 50% | < 30% | 3% | 27% | 
Nc1ncnc2c1ncn2[C@@H]1O[C@H](CSCCNC(=O)Nc2cccc3ccccc23)[C@@H](O)[C@H]1O | < 50% | < 30% | 3% | 27% | 
Nc1ncnc2c1ncn2[C@@H]1O[C@H](CSCCNC(=O)NCCCc2ccccc2)[C@@H](O)[C@H]1O | < 50% | < 30% | 3% | 27% | 
CCNC(=O)NCCSC[C@H]1O[C@@H](n2cnc3c(N)ncnc32)[C@H](O)[C@@H]1O | < 50% | < 30% | 3% | 27% | 
Nc1ncnc2c1ncn2[C@@H]1O[C@H](CSCCCNC(=O)NCCc2ccccc2)[C@@H](O)[C@H]1O | < 50% | < 30% | 3% | 27% | 
COc1cc2nc(-c3ccc(F)c(O)c3)nc(NCCSC[C@H]3O[C@@H](n4cnc5c(N)ncnc54)[C@H](O)[C@@H]3O)c2cc1OC | inactive | < 50% | < 30% |  | 
Nc1ncnc2c1ncn2[C@@H]1O[C@H](CSCCNC(=O)NCc2ccc(-c3cc[nH]n3)cc2)[C@@H](O)[C@H]1O | < 50% | < 30% | 3% | 27% | 
COc1cc2nc(-c3ccc(C(F)(F)F)cc3)nc(NCCSC[C@H]3O[C@@H](n4cnc5c(N)ncnc54)[C@H](O)[C@@H]3O)c2cc1OC | inactive | < 50% | < 30% |  | 
Nc1ncnc2c1ncn2[C@@H]1O[C@H](CSCCNC(=O)NC2CCCCC2)[C@@H](O)[C@H]1O | < 50% | < 30% | 3% | 27% | 
Nc1ncnc2c1ncn2[C@@H]1O[C@H](CSCCNC(=O)NCc2ccc(F)cc2)[C@@H](O)[C@H]1O | < 50% | < 30% | > 50% | > 90% | 

— ChEMBL document CHEMBL5608259 (J Med Chem, 2024)
